Test results published in patent US5981541A, “Substituted heterocycles as anti-tumor agents” (Rutgers, The State University of New Jersey, priority 1997, dated 1999).
Like-named read-outs stand apart in the source and are kept apart here.

Legend:
[1] = test system: Human lymphoblast RPMI 8402 cells; assay: MTT-microtiter plate tetrazolinium cytotoxicity assay (MTA), RPMI 8402; format: cell-based; details: Homo sapiens, read-out: Cytotoxicity IC50, RPMI
Procedure: (§1) The IC50 of the drugs tested were determined by the MTT-microtiter plate tetrazolinium cytotoxicity assay (MTA) (Mosmann, T., J. Immunol. Methods 65:55-63 (1983); Denizot et al., J. Immunol. Methods 89:271-277 (1986)). Human lymphoblast RPMI 8402 cells and their camptothecin-resistant CPT-K5 cells (Andoh et al., Proc. Natl. Acad. Sci., USA 84:5565-5569 (1987)) were kindly provided by Dr. Toshiwo Andoh (Aichi Cancer Center Research Institute, Nagoya, Japan). The cell lines A2780 and its camptothecin-resistant derivative CPT-2000 were a generous gift of Dr. Jaulang Hwang (Institute of Molecular Biology, Academia sinica, Taiwan). Cells (2000 cells/well, seeded in […] growth medium) were grown in suspension at 37° C. in 5% CO2 and maintained by regular passage in RPMI medium supplemented with 10% heat inactivated fetal bovine serum, L-glutamine (2 mM), penicillin (100 U/mi), and streptomycin (0.1 mg/ml). The cells were exposed continuously for 4 days to drug concentrations ranging from 100 ug/ml to 1.0 ng/ml in ten fold dilutions, and assayed at the end of the fourth day. Each concentration and the no drug control were repeated at least twice in 6 replica wells. The results were plotted and the IC50 then measured. The drug sensitive human epidermoid carcinoma KB 3-1 cell line and its vinblastine-selected multidrug-resistant variant KB-V1 cells (Akiyama et al., Genetics 11:117-126 (1985)) were kindly provided by Dr. Michael Gottesmann (National Cancer Institute). They were grown as monolayer cultures at 37° C. in 5% CO2 and maintained by regular passage in Dulbecco's minimal essential medium supplemented with 10% heat inactivated fetal bovine serum. KB-V1 cells were maintained in the presence of […] vinblastine.

[2] = test system: camptothecin-resistant CPT-K5 cells; assay: MTT-microtiter plate tetrazolinium cytotoxicity assay (MTA), CPT-K5; format: cell-based, human; details: Homo sapiens, read-out: Cytotoxicity IC50, CPT-K5
Procedure: as §1

human topoisomerase I = molecular target: T1, human topoisomerase I (Homo sapiens, UniProt P11387); assay: Topo I-mediated DNA cleavage assay; format: biochemical; details: concentration relative to camptothecin (CPT = 1) producing the same cleavage on plasmid DNA in the presence of human topoisomerase I
T1 construct: 15 amino acid fusion from pET-11a vector (N); made in house; host or cells: E. coli BL21(DE3)
T1 sequence (P11387 1-765): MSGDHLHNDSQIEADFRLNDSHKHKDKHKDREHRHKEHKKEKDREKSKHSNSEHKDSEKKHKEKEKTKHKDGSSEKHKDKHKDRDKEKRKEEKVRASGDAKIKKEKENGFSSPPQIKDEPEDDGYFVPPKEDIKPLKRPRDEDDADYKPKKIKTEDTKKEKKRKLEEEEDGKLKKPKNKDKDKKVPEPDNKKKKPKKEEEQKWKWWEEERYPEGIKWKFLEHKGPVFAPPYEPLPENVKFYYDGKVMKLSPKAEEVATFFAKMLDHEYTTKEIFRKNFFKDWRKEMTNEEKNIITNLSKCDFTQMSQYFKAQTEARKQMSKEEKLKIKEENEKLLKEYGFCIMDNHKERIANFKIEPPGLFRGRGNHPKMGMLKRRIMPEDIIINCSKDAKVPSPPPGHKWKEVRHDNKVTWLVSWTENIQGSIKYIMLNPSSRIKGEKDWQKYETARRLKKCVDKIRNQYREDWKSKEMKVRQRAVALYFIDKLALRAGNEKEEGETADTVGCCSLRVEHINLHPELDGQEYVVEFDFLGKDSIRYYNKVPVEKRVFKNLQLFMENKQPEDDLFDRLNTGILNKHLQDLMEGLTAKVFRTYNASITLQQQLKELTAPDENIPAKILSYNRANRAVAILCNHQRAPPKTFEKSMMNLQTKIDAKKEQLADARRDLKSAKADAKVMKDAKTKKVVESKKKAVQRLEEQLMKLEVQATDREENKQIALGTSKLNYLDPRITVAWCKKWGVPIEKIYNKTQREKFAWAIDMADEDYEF
Excerpt: To obtain large quantity of human topoisomerase I, the human topoisomerase I cDNA was cloned into the pET-11a vector, in which transcription of the cDNA is under the control of the inducible T7 promoter (Studier et al., Methods in Enzymol., Vol. 185:60-89, San Diego: Academic Press (1990)). Briefly, a 3.4 kb DNA fragment containing the entire coding sequence of human topoisomerase I and approximately 1 kb of untranslated region downstream of the stop codon was isolated from the plasmid YCpGAL1-hTOP1 (Bjornsti et al., Cancer Res. 49:6318-6323 (1989)) by cutting at the BamHI and EcoRI sites. The vector pET-11a was cut with the same restriction enzymes, dephosphorylated and ligated to the insert in the proper reading frame downstream of the vector cloning site. […] Since the translational start in pET is positioned at an upstream NdeI site, the expressed topoisomerase I has a 15 amino acid fusion at its N-terminus. pET1B was then transformed into E. coli BL21 (DE3), and, upon induction with 0.4 mM IPTG for 1 hour, the bacterial lysate was analyzed by 10% SDS-PAGE. […] Briefly, E. coli cells were lysed by repeated sonic bursts. The sonic extract was made in 1 M NaCl and 6% polyethylene glycol (PEG) to remove nucleic acids. The PEG supernatant was chromatographed directly on a hydroxyapatite column. […] The eluted enzyme was dialyzed against 50% glycerol, 30 mM potassium phosphate (pH 7.0), 1 mM dithiothreitol (DTT) and 0.1 mM EDTA and stored at -20° C.
(§2) Cleavage assays for the recombinant topoisomerases I and calf thymus topoisomerases I and II were done as described (Liu et al., J. Biol. Chem. 258:15365-15370 (1983)). The plasmid YEpG DNA used for the cleavage assays was prepared and labeled at its 3'-end using the published procedures.

[3] = molecular target: T2, calf thymus topoisomerase II (Bos taurus, UniProt F1MDU7); assay: Topo II-mediated DNA cleavage assay; format: biochemical; details: concentration relative to VM26 (= 1) producing the same cleavage on plasmid DNA in the presence of calf thymus topoisomerase II
T2 construct: from tissue; host or cells: calf thymus glands
T2 sequence (F1MDU7 1-1532): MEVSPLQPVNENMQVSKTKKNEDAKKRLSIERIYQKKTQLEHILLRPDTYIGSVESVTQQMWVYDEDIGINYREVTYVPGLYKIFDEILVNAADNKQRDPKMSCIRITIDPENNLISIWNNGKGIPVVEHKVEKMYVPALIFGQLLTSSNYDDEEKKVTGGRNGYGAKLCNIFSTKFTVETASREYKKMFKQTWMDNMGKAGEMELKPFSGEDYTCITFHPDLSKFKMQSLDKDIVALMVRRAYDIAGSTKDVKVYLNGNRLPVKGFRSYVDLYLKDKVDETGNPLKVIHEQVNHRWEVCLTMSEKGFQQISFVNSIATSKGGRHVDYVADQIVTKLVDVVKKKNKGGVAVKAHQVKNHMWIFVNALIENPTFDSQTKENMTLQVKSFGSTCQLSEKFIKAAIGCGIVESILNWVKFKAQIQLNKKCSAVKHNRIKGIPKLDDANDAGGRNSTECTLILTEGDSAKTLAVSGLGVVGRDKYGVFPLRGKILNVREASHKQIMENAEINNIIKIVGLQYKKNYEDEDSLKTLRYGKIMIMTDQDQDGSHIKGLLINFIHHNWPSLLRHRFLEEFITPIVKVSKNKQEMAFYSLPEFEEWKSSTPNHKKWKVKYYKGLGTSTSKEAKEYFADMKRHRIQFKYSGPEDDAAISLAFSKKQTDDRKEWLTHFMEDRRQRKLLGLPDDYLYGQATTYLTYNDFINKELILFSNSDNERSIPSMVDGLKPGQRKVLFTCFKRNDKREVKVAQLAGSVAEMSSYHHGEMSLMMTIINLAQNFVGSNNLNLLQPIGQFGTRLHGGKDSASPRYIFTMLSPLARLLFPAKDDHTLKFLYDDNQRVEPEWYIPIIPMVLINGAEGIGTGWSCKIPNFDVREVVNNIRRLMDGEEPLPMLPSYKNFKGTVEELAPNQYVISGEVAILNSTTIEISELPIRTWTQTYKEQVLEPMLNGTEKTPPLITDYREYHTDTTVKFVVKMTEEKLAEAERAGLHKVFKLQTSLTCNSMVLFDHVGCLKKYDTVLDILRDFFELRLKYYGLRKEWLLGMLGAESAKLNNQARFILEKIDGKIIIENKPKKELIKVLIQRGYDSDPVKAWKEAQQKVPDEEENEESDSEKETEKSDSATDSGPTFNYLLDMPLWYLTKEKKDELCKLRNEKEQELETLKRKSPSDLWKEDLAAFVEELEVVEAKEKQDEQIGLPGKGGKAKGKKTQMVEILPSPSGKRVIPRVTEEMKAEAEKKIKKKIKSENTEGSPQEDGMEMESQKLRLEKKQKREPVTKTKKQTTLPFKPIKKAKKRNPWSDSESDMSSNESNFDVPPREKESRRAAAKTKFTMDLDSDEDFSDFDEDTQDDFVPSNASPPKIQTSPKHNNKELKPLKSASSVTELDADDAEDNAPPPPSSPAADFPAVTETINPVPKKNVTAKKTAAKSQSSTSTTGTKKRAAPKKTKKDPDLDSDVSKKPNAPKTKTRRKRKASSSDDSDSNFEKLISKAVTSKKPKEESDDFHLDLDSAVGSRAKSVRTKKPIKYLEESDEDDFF
Excerpt: The plasmid pET11a and the E. coli strain BL21(DE3) used for enzyme expression were purchased from Novagen. IPTG was purchased from Sigma. The ECL system used for the Western blotting analysis of bacterial lysates was from Amersham (UK). All the restriction enzymes and Vent polymerase were from New England Biolabs. Mammalian topoisomerase II was isolated from calf thymus glands according to the published procedure (Halligan et al., J. Biol. Chem. 260:2475-2482 (1985)). The single copy yeast plasmids YCpGAL1 expressing various topoisomerase I genes in JN2-134 yeast strain were a kind gift of Dr. M-A. Bjornsti (Thomas Jefferson University, Philadelphia, Pa.). All bacterial and yeast media were from Difco (Detroit, Mich.), while cell culture media were purchased from Gibco-BRL (Gaithersburg, Md.).
as §2

Structure (SMILES) | Topo I-mediated DNA cleavage (REC, Relative Effective Concentration) (human topoisomerase I) | Topo II-mediated DNA cleavage (REC, Relative Effective Concentration) [3] | IC50 ([1]; RPMI 8402, 96 h) | IC50 ([2]; CPT-K5, 96 h) | IC50 ([1]; 96 h, RPMI 8402 cells, 4 days of continuous drug exposure) | IC50 ([2]; 96 h, camptothecin-resistant CPT-K5 cells, 4 days of continuous drug exposure)
COc1cc2ccc3c(cc4cc(OC)c(OC)cc4[n+]3C)c2cc1OC [Compound 16a, 2,3,9,10-Tetramethoxy-7-methylbenz[a]acridinium methosulfate] | > 1000 | > 1000 |  |  | 25.3 µM | 23.2 µM
COc1cc2cc3c(nc2cc1OC)CCc1ccc(N)cc1-3 [Compound 20, 2-Amino-9,10-dimethoxy-5,6-dihydrobenz[a]acridine] | 100 | > 1000 | 16.3 µM | > 33 µM |  | 
COc1cc2cc3c4cc(OC)c(OC)cc4cc[n+]3c(C)c2cc1OC [Coralyne, reference compound] | 1 | > 1000 | 4.9 µM | 20 µM |  | 
COc1cc2c[n+](C)c3c4cc5c(cc4ccc3c2cc1OC)OCO5 [Nitidine, reference compound] | 0.1 | 5 | 0.4 µM | 3.9 µM |  | 

More lines, main results first:

Topo I-mediated DNA cleavage (REC, Relative Effective Concentration) (human topoisomerase I) | Topo II-mediated DNA cleavage (REC, Relative Effective Concentration) [3] | Structure (SMILES) | IC50 ([1]; RPMI 8402, 96 h) | IC50 ([2]; CPT-K5, 96 h) | IC50 ([1]; 96 h, RPMI 8402 cells, 4 days of continuous drug exposure) | IC50 ([2]; 96 h, camptothecin-resistant CPT-K5 cells, 4 days of continuous drug exposure)
> 1000 | > 1000 | COc1cc2cc3c(ccc4ccccc43)nc2cc1OC [Compound 14c, 9,10-Dimethoxybenz[a]acridine] | 10.4 µM | 31.1 µM |  | 
1000 | > 1000 | COc1cc2ccc3nc4ccccc4cc3c2cc1OC [Compound 14d, 2,3-Dimethoxy-benz[a]acridine] | 10.4 µM | 13.8 µM |  | 
100 | > 1000 | Oc1cc2cc3c(ccc4cc(O)c(O)cc43)nc2cc1O [Compound 14g, 2,3,9,10-tetrahydroxybenz[a]acridine] | 17.1 µM | > 34 µM |  | 
1000 | > 1000 | COc1cc2cc3c(ccc4cc(Cl)ccc43)nc2cc1OC [Compound 14j, 3-Chloro-9,10-dimethoxybenz[a]acridine] | > 31 µM | > 31 µM |  | 
100 | > 1000 | COc1cc2c(cc1OC)-c1cc3cc(OC)c(OC)cc3[n+](C)c1CC2 [Compound 15a, 2,3,9,10-Tetramethoxy-7-methyl-5,6-dihydrobenz[a]acridinium methosulfate] | > 24 µM | > 24 µM |  | 
